According to US7097866B2, “Composition and method to whiten and exfoliate skin” (Desert Whale Jojoba Company, priority 2002, dated 2006):

Tested on: mouse B16F10 melanoma cells
Experiment: melanin content and cell pellet color of mouse B16F10 melanoma cells cultured 6 days
Format: cell-based
Parameters: key to Vidjual color determination of cell pellet (score 5 black to 1 white, 0 not detectable): A Vidjual score of 5 means the cell pellet was black; A Vidjual score of 1 means the cell pellet was white; A Vidjual score of 0 means the cell pellet was not detectable, i.e. it has no color at all
Conditions: Sodium lactate positive control; for Vidjual color determination of cell pellet (score 5 black to 1 white, 0 not detectable): 25 mM or 50 mM level; for total melanin content per microgram of protein: added at either 25 mM or 50 mM level

## CC(O)C(=O)[O-].[Na+] (stereo not shown) [Positive Control, Sodium lactate]
Table row 0.5 v/v %
  Vidjual color determination of cell pellet (score 5 black to 1 white, 0 not detectable): 3
  total melanin content per microgram of protein: 0.240 micrograms per microgram of pr
Table row 1.0 v/v %
  Vidjual color determination of cell pellet (score 5 black to 1 white, 0 not detectable): 1
  total melanin content per microgram of protein: 0.107 micrograms per microgram of pr
